Earlier results, collected in PMC10576142, “Intrinsic structural dynamics dictate enzymatic activity and inhibition” (Proceedings of the National Academy of Sciences of the …, 2023).

Test system: HDAC8
Design: method as in PMID 24079912

CC(/C=C/C(=O)NO)=C\[C@@H](C)C(=O)c1ccc(N(C)C)cc1 [TCSA, trichostatin A]
overall off-rate: 0.1 s⁻¹
